Assay results: patent US20230365559A1, “NOVEL AMINOPYRIDINES AND THEIR USE IN TREATING CANCER” (priority 2020, published 2023)
Values joined by “and” are separate entries in the source; they are usually repeats but may differ in a detail not shown here. Equal values may be shown once.

Assays:
UT-SCC-54C cells [1] = test: Radiosensitisation of UT-SCC-54C HNSCC cells, regrowth (sulforhodamine B) assay, oxic (Table 16); type: cell-based, human; settings: for IC50: Homo sapiens, read-out: IC50; for S50: compound in combination with 3 Gy of radiation, 50% inhibition of regrowth fraction, UT-SCC-54C; for S50 / radiosensitisation / differential growth inhibition of UT-SCC-54C cells: oxic; for radiosensitisation / differential growth inhibition of UT-SCC-54C cells: 0 or 3 Gy, regrowth assay
human mTOR = human mTOR (Homo sapiens, UniProt P42345); test: Inhibition of mTOR kinase activity, HotSpot assay, phosphorylation of 4EPB1; settings: Inhibition of kinase activity (as IC50) mTOR (nM), 10 μM ATP; mean of two replicates; Table 12
human DNA-PK = human DNA-PK (Homo sapiens, UniProt P78527); test: Inhibition of DNA-PKcs kinase activity, HotSpot assay (Reaction Biology), [γ-33P]-ATP phosphorylation of peptide substrate; type: biochemical; settings: 10 μM ATP, 10 μg/ml DNA; mean of two replicates; Table 12; read-out: Inhibition of kinase activity (as IC50) DNA-PK (converted)
human PI3Kα (p110α/p85α) = human PI3Kα (p110α/p85α) (Homo sapiens, UniProt P42336); test: Inhibition of PI3Kα kinase activity, ADP-Glo Assay (Reaction Biology); type: biochemical; settings: 10 μM ATP; mean of two replicates; Table 12; read-out: Inhibition of kinase activity (as IC50) PICK
UT-SCC-54C cells [2] = test: Radiosensitisation of UT-SCC-54C HNSCC cells, clonogenic survival, oxic and anoxic (Table 18); type: cell-based, human; settings: for Plating efficiency drug/no drug: no radiation; for sensitisation of UT-SCC-54C cells selectively under anoxia: oxic vs anoxic, clonogenic survival, FIGS. 9 and 10

human PI3Kα (p110α/p85α), sequence (P42336 whole entry): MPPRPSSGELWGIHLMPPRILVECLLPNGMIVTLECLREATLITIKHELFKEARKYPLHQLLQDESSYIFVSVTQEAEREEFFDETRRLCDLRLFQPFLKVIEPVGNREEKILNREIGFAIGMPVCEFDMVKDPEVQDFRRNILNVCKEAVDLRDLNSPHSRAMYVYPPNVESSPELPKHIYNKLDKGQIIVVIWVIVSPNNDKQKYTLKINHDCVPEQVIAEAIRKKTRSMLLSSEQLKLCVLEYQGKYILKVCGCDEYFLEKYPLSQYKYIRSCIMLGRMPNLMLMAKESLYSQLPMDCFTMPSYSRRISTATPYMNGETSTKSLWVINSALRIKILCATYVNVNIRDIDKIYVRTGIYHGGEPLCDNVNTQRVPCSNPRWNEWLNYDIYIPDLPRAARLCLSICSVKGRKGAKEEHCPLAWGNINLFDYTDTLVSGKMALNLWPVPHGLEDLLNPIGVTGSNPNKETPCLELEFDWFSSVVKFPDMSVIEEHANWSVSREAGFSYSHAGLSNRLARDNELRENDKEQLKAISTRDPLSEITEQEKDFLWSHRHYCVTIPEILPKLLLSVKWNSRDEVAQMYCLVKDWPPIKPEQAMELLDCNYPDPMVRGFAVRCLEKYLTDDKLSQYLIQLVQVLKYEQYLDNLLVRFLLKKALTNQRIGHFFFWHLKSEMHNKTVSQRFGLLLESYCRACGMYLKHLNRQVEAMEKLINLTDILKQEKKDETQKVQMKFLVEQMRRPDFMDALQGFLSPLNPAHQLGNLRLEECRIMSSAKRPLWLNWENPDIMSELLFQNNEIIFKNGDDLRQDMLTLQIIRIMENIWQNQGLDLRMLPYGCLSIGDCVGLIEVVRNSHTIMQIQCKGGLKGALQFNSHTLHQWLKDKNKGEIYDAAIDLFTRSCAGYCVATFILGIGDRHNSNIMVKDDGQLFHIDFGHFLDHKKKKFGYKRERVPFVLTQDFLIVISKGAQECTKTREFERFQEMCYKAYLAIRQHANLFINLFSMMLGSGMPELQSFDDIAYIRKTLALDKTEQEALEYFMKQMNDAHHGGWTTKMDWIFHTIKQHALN
human PI3Kα (p110α/p85α), sequence (P27986 whole entry partner): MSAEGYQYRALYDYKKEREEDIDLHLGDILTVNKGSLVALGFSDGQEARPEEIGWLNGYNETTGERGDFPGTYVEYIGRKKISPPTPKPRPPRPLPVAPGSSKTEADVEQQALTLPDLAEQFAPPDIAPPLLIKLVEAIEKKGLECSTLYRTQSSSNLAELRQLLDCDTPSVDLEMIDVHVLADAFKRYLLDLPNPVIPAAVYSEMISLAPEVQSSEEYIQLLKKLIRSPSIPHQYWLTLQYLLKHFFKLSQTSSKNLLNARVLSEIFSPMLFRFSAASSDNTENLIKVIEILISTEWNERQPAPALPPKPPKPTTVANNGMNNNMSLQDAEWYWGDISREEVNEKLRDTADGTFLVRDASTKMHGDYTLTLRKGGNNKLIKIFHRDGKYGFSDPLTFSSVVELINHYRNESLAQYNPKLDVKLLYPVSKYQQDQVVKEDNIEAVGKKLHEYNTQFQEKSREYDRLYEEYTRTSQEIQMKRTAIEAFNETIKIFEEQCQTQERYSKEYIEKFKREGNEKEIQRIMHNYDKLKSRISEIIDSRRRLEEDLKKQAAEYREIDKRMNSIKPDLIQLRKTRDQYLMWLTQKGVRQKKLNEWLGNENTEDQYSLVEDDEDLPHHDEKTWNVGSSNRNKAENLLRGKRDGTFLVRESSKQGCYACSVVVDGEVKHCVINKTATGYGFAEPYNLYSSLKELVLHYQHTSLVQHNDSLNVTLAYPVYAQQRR

Structure (SMILES) | IC50 (human DNA-PK) | IC50 (human PI3Kα (p110α/p85α)) | IC50 (UT-SCC-54C cells [1]) | S50 (UT-SCC-54C cells [1]) | also measured
Cn1c(=O)n(C2CCCC2)c2cc(Nc3ccc4ncsc4c3)ncc21 [Compound 70, 6-(Benzo[d]thiazol-6-ylamino)-1-cyclopentyl-3-methyl-1,3-dihydro-2H-imidazo[4,5-c]pyridin-2-one] | – | – | > 10000 nM | 2.62 µM | –
Cc1ccncc1Nc1cc2c(cn1)n(C)c(=O)n2C1CCCC1 [Compound 78, 1-Cyclopentyl-3-methyl-6-((4-methylpyridin-3-yl)amino)-1,3-dihydro-2H-imidazo[4,5-c]pyridin-2-one] | – | – | > 10000 nM | 4.09 µM | –
Cc1cc(Cl)ccc1Nc1cc2c(cn1)n(C)c(=O)n2C1CCOCC1 [Compound 122, 6-((4-Chloro-2-methylphenyl)amino)-3-methyl-1-(tetrahydro-2H-pyran-4-yl)-1,3-dihydro-2H-imidazo[4,5-c]pyridin-2-one] | – | 2530 nM and 5530 nM | > 10000 nM | 0.38 µM | IC50 (human mTOR): 46600 nM and 56100 nM
Cc1cc(OCc2ccccc2)ccc1Nc1cc2c(cn1)n(C)c(=O)n2C1CCOCC1 [Compound 124, 6-((4-(Benzyloxy)-2-methylphenyl)amino)-3-methyl-1-(tetrahydro-2H-pyran-4-yl)-1,3-dihydro-2H-imidazo[4,5-c]pyridin-2-one] | 422 nM | 5450 nM | – | – | –
Cc1nc2ccc(Nc3cc4c(cn3)n(C)c(=O)n4C3CCOCC3)cc2o1 [Compound 128, 3-Methyl-6-((2-methylbenzo[d]oxazol-6-yl)amino)-1-(tetrahydro-2H-pyran-4-yl)-1,3-dihydro-2H-imidazo[4,5-c]pyridin-2-one] | 1420 nM | > 10000 nM | – | – | IC50 (human mTOR): > 100000 nM
Cc1cc(Cl)ccc1N(C(=O)OCc1ccccc1)c1cc2c(cn1)n(C)c(=O)n2C1CCOCC1 [Compound 134, Benzyl (4-Chloro-2-methylphenyl)(3-methyl-2-oxo-1-(tetrahydro-2H-pyran-4-yl)-2,3-dihydro-1H-imidazo[4,5-c]pyridin-6-yl)carbamate] | > 10000 nM | > 10000 nM | – | – | –
Cc1cc2ncc(C(=O)O)n2cc1Nc1cc2c(cn1)n(C)c(=O)n2C1CCOCC1 [Compound 136, 7-Methyl-6-((3-methyl-2-oxo-1-(tetrahydro-2H-pyran-4-yl)-2,3-dihydro-1H-imidazo[4,5-c]pyridin-6-yl)amino)imidazo[1,2-a]pyridine-3-carboxylic acid] | 3.6 nM | 151 nM | – | – | IC50 (human mTOR): 19600 nM
COc1ccc(N(C(=O)OCc2ccccc2)c2cc3c(cn2)n(C)c(=O)n3C2CCN(C(=O)OC(C)(C)C)CC2)c(C)c1 [Compound 154, tert-Butyl 4-(6-(((Benzyloxy)carbonyl)(4-methoxy-2-methylphenyl)amino)-3-methyl-2-oxo-2,3-dihydro-1H-imidazo[4,5-c]pyridin-1-yl)piperidine-1-carboxylate] | – | – | > 10000 nM | 2.06 µM | –
COc1ccc(-n2c(=O)n(C)c3cnc(Nc4ccc(OC)cc4C)cc32)cc1 [Compound 195, 6-((4-Methoxy-2-methylphenyl)amino)-1-(4-methoxyphenyl)-3-methyl-1,3-dihydro-2H-imidazo[4,5-c]pyridin-2-one] | – | – | – | – | D1 (radiation dose for 1% surviving fraction) (UT-SCC-54C cells [2]; 20% O2, compound conc 0.33 μM): 1.53 Gy; D10 (radiation dose for 10% surviving fraction) (UT-SCC-54C cells [2]; 20% O2, compound conc 0.33 μM): 4.67 Gy; D1 (radiation dose for 1% surviving fraction) (UT-SCC-54C cells [2]; 20% O2, compound conc 1 μM): 2.75 Gy; D10 (radiation dose for 10% surviving fraction) (UT-SCC-54C cells [2]; 20% O2, compound conc 1 μM): 2.60 Gy; D1 (radiation dose for 1% surviving fraction) (UT-SCC-54C cells [2]; 20% O2, compound conc 3 μM): 3.90 Gy; D10 (radiation dose for 10% surviving fraction) (UT-SCC-54C cells [2]; 20% O2, compound conc 3 μM): 1.83 Gy; radiosensitisation, clonogenic survival endpoint (UT-SCC-54C cells [2]; UT-SCC-54C, FIG. 8 and Table 18): concentration-dependent increases in radiosensitisation
Cc1cc(OC(C)c2cnc([N+](=O)[O-])n2C)ccc1Nc1cc2c(cn1)n(C)c(=O)n2C1CCOCC1 (stereo not shown) [Compound 238, 3-Methyl-6-((2-methyl-4-(1-(1-methyl-2-nitro-1H-imidazol-5-yl)ethoxy)phenyl)amino)-1-(tetrahydro-2H-pyran-4-yl)-1,3-dihydro-2H-imidazo[4,5-c]pyridin-2-one] | – | – | > 10000 nM | >10 µM | D1 (radiation dose for 1% surviving fraction) (UT-SCC-54C cells [2]; 0% O2, compound conc 1 μM): 15.0 Gy; D10 (radiation dose for 10% surviving fraction) (UT-SCC-54C cells [2]; 0% O2, compound conc 1 μM): 8.46 Gy; SER1 (sensitiser enhancement ratio at 1% surviving fraction) (UT-SCC-54C cells [2]; 0% O2, compound conc 1 μM): 1.44; SER10 (sensitiser enhancement ratio at 10% surviving fraction) (UT-SCC-54C cells [2]; 0% O2, compound conc 1 μM): 1.65; Plating efficiency drug/no drug (UT-SCC-54C cells [2]; 0% O2, compound conc 1 μM): 1.02; sensitisation of UT-SCC-54C cells selectively under anoxia (UT-SCC-54C cells [2]): provide sensitisation of UT-SCC-54C cells selectively under anoxia; radiosensitisation / differential growth inhibition of UT-SCC-54C cells (UT-SCC-54C cells [1]): did not display any differential growth inhibition
Cc1cc(OCc2ncc([N+](=O)[O-])n2C)ccc1Nc1cc2c(cn1)n(C)c(=O)n2C1CCOCC1 [Compound 240, 3-Methyl-6-((2-methyl-4-((1-methyl-5-nitro-1H-imidazol-2-yl)methoxy)phenyl)amino)-1-(tetrahydro-2H-pyran-4-yl)-1,3-dihydro-2H-imidazo[4,5-c]pyridin-2-one] | – | – | > 10000 nM | >10 µM | radiosensitisation / differential growth inhibition of UT-SCC-54C cells (UT-SCC-54C cells [1]): did not display any differential growth inhibition
COc1ccc(N(C(=O)OC(C)c2cnc([N+](=O)[O-])n2C)c2cc3c(cn2)n(C)c(=O)n3C2CCOCC2)c(C)c1 (stereo not shown) [Compound 250, 1-(1-Methyl-2-nitro-1H-imidazol-5-yl)ethyl (4-methoxy-2-methylphenyl)(3-methyl-2-oxo-1-(tetrahydro-2H-pyran-4-yl)-2,3-dihydro-1H-imidazo[4,5-c]pyridin-6-yl)carbamate] | – | – | > 10000 nM | >10 µM | D1 (radiation dose for 1% surviving fraction) (UT-SCC-54C cells [2]; 0% O2, compound conc 1 μM): 10.83 Gy; D10 (radiation dose for 10% surviving fraction) (UT-SCC-54C cells [2]; 0% O2, compound conc 1 μM): 5.78 Gy; SER1 (sensitiser enhancement ratio at 1% surviving fraction) (UT-SCC-54C cells [2]; 0% O2, compound conc 1 μM): 1.87; SER10 (sensitiser enhancement ratio at 10% surviving fraction) (UT-SCC-54C cells [2]; 0% O2, compound conc 1 μM): 2.09; Plating efficiency drug/no drug (UT-SCC-54C cells [2]; 0% O2, compound conc 1 μM): 0.98; sensitisation of UT-SCC-54C cells selectively under anoxia (UT-SCC-54C cells [2]): provide sensitisation of UT-SCC-54C cells selectively under anoxia; radiosensitisation / differential growth inhibition of UT-SCC-54C cells (UT-SCC-54C cells [1]): did not display any differential growth inhibition
COc1ccc(-n2c(=O)n(C)c3cnc(N(C(=O)OCc4cnc([N+](=O)[O-])n4C)c4ccc(OC)cc4C)cc32)cc1 [Compound 259, (1-Methyl-2-nitro-1H-imidazol-5-yl)methyl (4-methoxy-2-methylphenyl)(1-(4-methoxyphenyl)-3-methyl-2-oxo-2,3-dihydro-1H-imidazo[4,5-c]pyridin-6-yl)carbamate] | – | – | > 10000 nM | >10 µM | radiosensitisation / differential growth inhibition of UT-SCC-54C cells (UT-SCC-54C cells [1]): did not display any differential growth inhibition

Second part, led by results:

IC50 (human DNA-PK) | IC50 (human PI3Kα (p110α/p85α)) | Structure (SMILES) | IC50 (UT-SCC-54C cells [1]) | S50 (UT-SCC-54C cells [1]) | also measured
12.1 nM | 3260 nM | COCCn1c(=O)n(C)c2cnc(Nc3ccc(Cl)cc3C)cc21 [Compound 105, 6-((4-Chloro-2-methylphenyl)amino)-1-(2-methoxyethyl)-3-methyl-1,3-dihydro-2H-imidazo[4,5-c]pyridin-2-one] | – | – | IC50 (human mTOR): 71400 nM
0.27 nM | 237 nM | COc1ccc(-n2c(=O)n(C)c3cnc(Nc4ccc(Cl)cc4C)cc32)cc1 [Compound 196, 6-((4-Chloro-2-methylphenyl)amino)-1-(4-methoxyphenyl)-3-methyl-1,3-dihydro-2H-imidazo[4,5-c]pyridin-2-one] | > 10000 nM | 0.68 µM | –
0.09 nM | 33 nM | COc1ccc(-n2c(=O)n(C)c3cnc(Nc4cc(S(C)(=O)=O)ccc4C)cc32)cc1 [Compound 197, 1-(4-Methoxyphenyl)-3-methyl-6-((2-methyl-5-(methylsulfonyl)phenyl)amino)-1,3-dihydro-2H-imidazo[4,5-c]pyridin-2-one] | – | – | IC50 (human mTOR): 33400 nM
23 nM | 1800 nM | COc1ccc(-n2c(=O)n(C)c3cnc(Nc4ccc(S(C)(=O)=O)cc4C)cc32)cc1 [Compound 198, 1-(4-Methoxyphenyl)-3-methyl-6-((2-methyl-4-(methylsulfonyl)phenyl)amino)-1,3-dihydro-2H-imidazo[4,5-c]pyridin-2-one] | > 10000 nM | 0.17 µM | –
55 nM | – | COc1ccc(-n2c(=O)n(C)c3cnc(Nc4ccc(OCc5ccccc5)cc4C)cc32)cc1 [Compound 199, 6-((4-(Benzyloxy)-2-methylphenyl)amino)-1-(4-methoxyphenyl)-3-methyl-1,3-dihydro-2H-imidazo[4,5-c]pyridin-2-one] | – | – | –
< 0.51 nM | 803 nM | Cc1cc(Cl)ccc1Nc1cc2c(cn1)n(C)c(=O)n2-c1ccc(C(C)(C)C#N)cc1 [Compound 212, 2-(4-(6-((4-Chloro-2-methylphenyl)amino)-3-methyl-2-oxo-2,3-dihydro-1H-imidazo[4,5-c]pyridin-1-yl)phenyl)-2-methylpropanenitrile] | > 10000 nM | 0.51 µM | –
43 nM | – | Cn1c(=O)n(-c2ccc(C(C)(C)C#N)cc2)c2cc(Nc3ccc4nccnc4c3)ncc21 [Compound 214, 2-Methyl-2-(4-(3-methyl-2-oxo-6-(quinoxalin-6-ylamino)-2,3-dihydro-1H-imidazo[4,5-c]pyridin-1-yl)phenyl)propanenitrile] | – | – | –
116 nM | 1280 nM | COc1ccc(-n2c(=O)n(C)c3cnc(Nc4ccc(OCc5cnc([N+](=O)[O-])n5C)cc4C)cc32)cc1 [Compound 246, 1-(4-Methoxyphenyl)-3-methyl-6-((2-methyl-4-((1-methyl-2-nitro-1H-imidazol-5-yl)methoxy)phenyl)amino)-1,3-dihydro-2H-imidazo[4,5-c]pyridin-2-one] | > 10000 nM | 6.08 µM | radiosensitisation / differential growth inhibition of UT-SCC-54C cells (UT-SCC-54C cells [1]): did not display any differential growth inhibition
